Laboratory results from US20030134329A1, “Cross-species bioactive peptides” (priority 2001, published 2003).

How the values were obtained:
FLO11 = experiment: PFLO11-lacZ reporter, β-galactosidase activity; assay type: cell-based, S. cerevisiae; conditions: for FL011-lacZ (relative expression): Table 1, strain MY1405 with plasmid MB1339, control pTCN23 = 1.0; for FLO11-lacZ (relative expression): Table 2, strain MY1405 with MB1339, control pTCN23 = 1.0
Excerpt: Transformation of S. cerevisiae was by lithium acetate/single-stranded carrier DNA/polyethylene glycol (LiAc/ss-DNA/PEG) protocol (see, e.g., Gietz and Woods (1998), in: Methods in Microbiology, Chapter 26, Brown and Tuite, eds., Academic Press, New York; Agatep et al. (1998), TTO 1:P01525, Technical Tips Online at http://tto.trends.com) with a library of plasmids expressing unique random peptide sequences in the context of a Staphylococcal nuclease “scaffold” to generate more than 20 million independent Ura^+ transformants (Norman et al. (1999), Science 285:591-595). The transformants were replica-plated to YPD plates supplemented with […] G418 to select for clones with increased expression of the invasion-related reporter (FLO11) and consequent G418 resistance. Plates were incubated at 30° C. for 2-4 days and resistant clones were collected in pools (50 pools total) by scraping the colonies off each plate in a small volume of water. Plasmids were isolated as a pool (Hoffman and Winston (1986), Gene 57:267), transformed into E. coli, and re-transformed as a pool into the original selection strain, MY1560. Ura^+ transformants were again replica plated to YPD+100 μg/ml G418 plates. […] Positive clones were further tested for plasmid dependence by (1) examining the correlation between spontaneous loss of the peptide-expressing plasmid and loss of G418 resistance, and (2) recovering the plasmid from the yeast, retransforming into the original selection strain, and characterizing the G418 resistance. […] The remaining candidate peptides were characterized for their effects on expression of PFLO11-lacZ reporter constructs. This was performed by co-transforming the candidate plasmid into S. cerevisiae strain MY1405 (MATα ura3Δ0 his3Δ0::hisG trp1Δ0::hisG) which contains plasmid MB1339 [PFLO11-lacZ TRP1 […]] and measuring β-galactosidase activity.

[1] = test system: FLO11 promoter (PFLO11) fused to the neo gene; experiment: PFLO11-neo reporter selection: G418 resistance on YPD; assay type: cell-based, S. cerevisiae; conditions: strain MY1560, YPD + 100 μg/ml G418
Excerpt: To identify peptides that promote invasion we used S. cerevisiae strain MY1560 (MATα/MATαΔ::LEU2 ura3Δ::PFLO11-neo/ura3Δ0 leu2Δ0/leu2Δ0 trp1Δ0::hisG/trp1Δ10::hisG his3Δ0::hisG/his3Δ0::hisG). This strain contains the FLO11 promoter (PFLO11) fused to the neo gene conferring resistance to the drug G418. FLO11 is a cell-surface flocculin required for pseudohyphal and invasive growth in S. cerevisiae. […] Thus, altered FLO11 expression can be used as an indicator of an altered invasion phenotype.
It was empirically determined that the wild type MY1560 strain (untransformed or transformed with a plasmid representing the peptide library staph nuclease scaffold) is unable to grow on YPD media supplemented with 100 μg/ml G418. In contrast, hyperinvasive strains are resistant to this concentration of the drug and form colonies on G418-supplemented YPD media. Thus, transformation of this strain with an invasion-promoting peptide should render the cells capable of growing on G418-supplemented YPD media. […]

SMP1 = conditions: Table 2, strain MY1405 with MB1338, control pTCN23 = 1.0
Excerpt: S. cerevisiae strain MY1561 (MATα/MATαΔ::LEU2 ura3Δ::PSMP1-neo/ura3Δ0 leu2Δ0/leu2Δ0 trp1Δ0::hisG/trp1Δ0::hisG/his3Δ0::hisG/his3Δ0::hisG) was transformed with the peptide library as described above to generate 10 million independent Ura^+ clones. The transformed clones were mated to lawns of S. cerevisiae strain MY1406 [MB1337] and subsequently replica-plated to SC-Ura-Trp plates to select for triploids carrying the library clones in addition to the PSMP1-neo reporter. […] The MY1561/MY1406 [MB1337] triploids were replica-plated to YPD plates containing 100, 150, and 200 μg/ml G418, and resistant colonies were picked and retested, and their phenotypes were checked for library plasmid dependence using 5-FOA. Promising candidates were lysed and their plasmids recovered in E. coli, amplified, and reintroduced into MY1561 along with MB 1337(MY1561 is an S. cerevisiae strain and MB 1337 is a plasmid). […] In addition, S. cerevisiae strain MY1405 was transformed with the peptide clones along with MB1338 [PSMP1-lacZ TRP1 2 micron] and MB1339 [PFLO11-lacZ TRP1 2 micron], and the enzyme assays were monitored. […] Peptide inhibitors of invasion were further characterized for their effects on calcofluor resistance, a phenotype associated with mutations in the rim101/pH response pathway.

[2] = test system: hyphal transition in C. albicans; experiment: serum induction assay of hyphal transition; assay type: cell-based; conditions: C. albicans transformants, serum inducing media, 37° C., relative to parent staph nuclease scaffold
PHWP1-lacZ reporter = PHWP1-lacZ reporter visual screen on X-Gal plates; assay type: cell-based, C. albicans

| Substance | FL011-lacZ (relative expression) (FLO11) | further results |
| --- | --- | --- |
| AFSRRGRRAWSWPVSN [5-48, 2, invasion-promoting random peptide expressed in loop of Staphylococcal nuclease scaffold] | 12.9 | – |
| ALARWLEIELHPQGLI [5-16, 3, invasion-promoting random peptide expressed in loop of Staphylococcal nuclease scaffold] | 13.3 | – |
| CGLGGCCCEIFWSFSN [5-30, 3, invasion-promoting random peptide expressed in loop of Staphylococcal nuclease scaffold] | 7.3 | – |
| ELAYKFGRDWARLYFS [Clone 5-75-1, invasion-promoting random peptide expressed in loop of Staphylococcal nuclease scaffold] | 15.0 | – |
| EWCEICHRLVWVFCFT [5-34, 3, invasion-promoting random peptide expressed in loop of Staphylococcal nuclease scaffold] | 4.1 | – |
| GAGCAPRGCVVWSSLL [4-3, 1, invasion-promoting random peptide expressed in loop of Staphylococcal nuclease scaffold] | 2.5 | – |
| GHLWEWSGERWLLRWC [5-23, 1a, invasion-promoting random peptide expressed in loop of Staphylococcal nuclease scaffold] | 12.2 | – |
| GRRSRVRWSWPLFKSL [5-28, 3, invasion-promoting random peptide expressed in loop of Staphylococcal nuclease scaffold] | 18.2 | – |
| GSNGCVSVSSSVTSFM [5-49, 3, invasion-promoting random peptide expressed in loop of Staphylococcal nuclease scaffold] | 2.5 | PFLO11-neo Mediated G418^R [1]: +w |
| GYLRKHRALALGLNLH [4-9, 3, invasion-promoting random peptide expressed in loop of Staphylococcal nuclease scaffold] | 11.5 | – |
| HGDGLMRYFWSVAMWT [Clone 5-12-1a, invasion-promoting random peptide expressed in loop of Staphylococcal nuclease scaffold] | 2.7 | – |
| KRGRRRSHSCPSLMTD [4-1, 1, invasion-promoting random peptide expressed in loop of Staphylococcal nuclease scaffold] | 2.2 | – |
| KRKVCLLGGRFLVEWL [4-16, 2, invasion-promoting random peptide expressed in loop of Staphylococcal nuclease scaffold] | 14.8 | – |
| LAYGPERYPRACMRWD [Clone B2a] | – | SMP1-lacZ (relative expression) (SMP1): 8.9; FLO11-lacZ (relative expression) (FLO11): 0.2 |
| LDLDRVSVNRCSFMGF [Clone 5-20-1a, invasion-promoting random peptide expressed in loop of Staphylococcal nuclease scaffold] | 2.8 | – |
| LGYGEAEREMVTCREH [Clone D4a] | – | SMP1-lacZ (relative expression) (SMP1): 9.1; FLO11-lacZ (relative expression) (FLO11): 0.1 |
| LGYMRASREMDGWKLL [Clone D2a] | – | SMP1-lacZ (relative expression) (SMP1): 15.4; FLO11-lacZ (relative expression) (FLO11): 0.3 |

| Substance | FL011-lacZ (relative expression) (FLO11) | further results |
| --- | --- | --- |
| LPVSYVGQSTSQGPVW [Clone G4a-6] | – | SMP1-lacZ (relative expression) (SMP1): 7.8; FLO11-lacZ (relative expression) (FLO11): 0.4 |
| LPYEVSRVCWPRRLGY [Clone D2e] | – | SMP1-lacZ (relative expression) (SMP1): 14.3; FLO11-lacZ (relative expression) (FLO11): 0.1 |
| LSYMEGPYWHRSFRAV [Clone G2a] | – | SMP1-lacZ (relative expression) (SMP1): 7.5; FLO11-lacZ (relative expression) (FLO11): 0.5 |
| LTGYAKLLVQLSYFAM [Clone B2c-2] | – | SMP1-lacZ (relative expression) (SMP1): 6.4; FLO11-lacZ (relative expression) (FLO11): 0.7 |
| LYRAFTWPVAKSLRME [5-37, 1, invasion-promoting random peptide expressed in loop of Staphylococcal nuclease scaffold] | 6.1 | – |
| MGCVKRLLWGCCMKLT [Clone 5-64-1, invasion-promoting random peptide expressed in loop of Staphylococcal nuclease scaffold] | 2.0 | – |
| PYGPFLLLTPF*A*L [5-32, 1, invasion-promoting random peptide in Staphylococcal nuclease scaffold; * denotes a stop codon; C. albicans expression plasmid MB2756] | 15.1 | morphological switch between yeast and filamentous growth (hyphal transition) [2]: effective in inducing the morphological switch between yeast and filamentous growth; β-galactosidase expression (PHWP1-lacZ reporter) (PHWP1-lacZ reporter): higher level of β-galactosidase expression |
| QPWYRKLRLAPVYPSD [Clone 5-39-1a, invasion-promoting random peptide expressed in loop of Staphylococcal nuclease scaffold] | 17.8 | – |
| QRIPLIGGVLFIAWIM [Clone 5-11-3a, invasion-promoting random peptide expressed in loop of Staphylococcal nuclease scaffold] | 3.0 | – |
| RCPVAHTLCWEVAGCT [Clone 5-43-3b, invasion-promoting random peptide expressed in loop of Staphylococcal nuclease scaffold] | 9.6 | – |
| REINWLRFFRLHKVID [5-45, 2, invasion-promoting random peptide expressed in loop of Staphylococcal nuclease scaffold] | 6.2 | – |
| RRWEVLRGDRTARLLS [5-25, 2, invasion-promoting random peptide expressed in loop of Staphylococcal nuclease scaffold] | 13.7 | – |
| RRWNRLKSWWPCFREQ [Clone 5-18-3b, invasion-promoting random peptide expressed in loop of Staphylococcal nuclease scaffold] | 2.6 | – |
| SGDAVMGFLLKCLGLQ [5-31, 2, invasion-promoting random peptide expressed in loop of Staphylococcal nuclease scaffold] | 12.6 | – |
| WWRPHERFIWAQYYLA [5-14, 3, invasion-promoting random peptide expressed in loop of Staphylococcal nuclease scaffold] | 4.9 | – |
| YEAGVILRACLWAVSG [4-17, 1, invasion-promoting random peptide expressed in loop of Staphylococcal nuclease scaffold] | 10.5 | – |
